Data from patent US9006257B2, “Bicyclic compounds as mPGES-1 inhibitors” (Glenmark Pharmaceuticals S.A., priority 2012, dated 2015).

Biological target: T1, Recombinant human mPGES-1 (Homo sapiens, UniProt O14684)
T1 construct: made in house; host or cells: CHO cells
T1 sequence (O14684 1-152): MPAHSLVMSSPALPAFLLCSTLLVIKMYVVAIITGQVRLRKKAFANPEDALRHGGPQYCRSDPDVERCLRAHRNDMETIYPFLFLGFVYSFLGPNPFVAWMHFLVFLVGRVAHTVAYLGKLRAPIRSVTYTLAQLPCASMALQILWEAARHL
Experiment: In-vitro mPGES-1 inhibitor screening (inhibition of PGE2 formation from PGH2, HTRF detection)
Assay type: biochemical
Conditions: for inhibition at 1 µM: 1 μM test compound, read-out: Percentage inhibition at 1 μM; for inhibition at 1 µM / inhibition at 10 µM: crude microsomal fraction, 15 μM PGH2; for inhibition at 10 µM: 10 μM test compound, read-out: Percentage inhibition at 10 μM; for IC50: class symbol, concentration response curve
Source text: In-Vitro Protocol for Screening of mPGES-1 Inhibitors:
mPGES-1 (microsomal prostaglandin E synthase-1) is a microsomal enzyme that converts endoperoxide substrate PGH2 (prostaglandin H2) to product PGE2 (prostaglandin E2) by isomerization in the presence of reduced glutathione (GSH). mPGES-1 inhibitors were screened by assessing their ability to inhibit formation of PGE2 from PGH2 in presence of mPGES-1 using an anti-PGE2 antibody based detection method. Recombinant human mPGES-1 was generated in-house by expression in CHO cells (Ouellet M et al. (2002), Protein Expression and Purification 26: 489-495). The assay was set up using crude microsomal fractions at protein concentration of 40-60 μg/mL. Test compounds were prepared in 100% dimethyl sulfoxide (DMSO) to obtain 20 mM stock solution and then diluted using assay buffer comprising 0.1 M Potassium phosphate buffer with 2 mM EDTA. The final concentration of DMSO in reaction was 0.5% (v/v). Negative controls were comprised of all assay reagents except the enzyme. Positive controls were comprised of the enzyme reaction in the absence of any inhibitor. Test compounds were incubated for 10 minutes in assay buffer containing 2.5 mM GSH and mPGES-1 enzyme followed by addition of PGH2 at a concentration of 15 μM for 1 minute. The reaction was stopped by addition of Stannous chloride (11 mg/ml) and PGE2 levels were measured (Masse F et al. (2005), Journal of Biomolecular Screening 10(6) 599-605., Goedken R E et al. (2008), Journal of Biomolecular Screening 13(7): 619-625) by HTRF kit (CisBio)).
Inhibition of mPGES-1 enzyme activity was measured using the percent of reaction occurring in the positive control. Concentration response curves were plotted using percent inhibition of maximum enzyme reaction. The IC50 value was calculated from the concentration response curve by nonlinear regression analysis using GraphPad PRISM software.

SMILES | inhibition at 1 µM | inhibition at 10 µM | IC50
Cc1nc(NC(C)C)c2cccc(NC(=O)c3c(Cl)ccc(CNC(=O)C(C)(C)C)c3F)c2n1 [Example-57, 6-Chloro-2-fluoro-N-(4-(isopropylamino)-2-methylquinazolin-8-yl)-3-(pivalamidomethyl)benzamide] | 74.1% | 96% | > 100 nM
CN(C)c1ncnc2c(NC(=O)c3c(Cl)ccc(CNC(=O)C(C)(C)C)c3F)cccc12 [Example-61, 6-Chloro-N-(4-(dimethylamino)quinazolin-8-yl)-2-fluoro-3-(pivalamidomethyl)benzamide] | 88.3% | 97.2% | > 100 nM
CC(C)(C)C(=O)NCc1ccc(Cl)c(C(=O)Nc2cccc3c(Oc4ccc(F)c(C(F)(F)F)c4)nccc23)c1 [Example-48, 2-Chloro-N-(1-(4-fluoro-3-(trifluoromethyl)phenoxy)isoquinolin-5-yl)-5-(pivalamidomethyl)benzamide] | 91.1% | 95.2% | < 50 nM
CCOc1ccnc2c(NC(=O)c3c(Cl)ccc(CNC(=O)C(C)(C)C)c3F)cccc12 [Example-63, 6-Chloro-N-(4-ethoxyquinolin-8-yl)-2-fluoro-3-(pivalamidomethyl)benzamide] | 90.8% | 94.7% | < 50 nM
CC(C)(C)C(=O)NCc1ccc(Cl)c(C(=O)Nc2cccc3c(Nc4ccc(C(F)(F)F)cc4)nccc23)c1 [Example-45, 2-Chloro-5-(pivalamidomethyl)-N-(1-((4-(trifluoromethyl)phenyl)amino)isoquinolin-5-yl)benzamide] | 99.6% | 98.3% | < 50 nM
CC1(C)CCC(Nc2ncnc3c(NC(=O)c4c(Cl)ccc(CNC(=O)C(C)(C)C)c4F)cccc23)CC1 [Example-22, 6-Chloro-N-(4-((4,4-dimethylcyclohexyl)amino)quinazolin-8-yl)-2-fluoro-3-(pivalamidomethyl)benzamide] | 100% | 99.6% | < 50 nM
CC(C)(C)Nc1ncnc2c(NC(=O)c3c(Cl)ccc(CNC(=O)C(C)(C)CF)c3F)cccc12 [Example-79, N-(4-(tert-Butylamino)quinazolin-8-yl)-6-chloro-2-fluoro-3-((3-fluoro-2,2-dimethylpropanamido)methyl)benzamide] | 100% | 99.1% | < 50 nM
CC(C)(C)C(=O)NCc1ccc(Cl)c(C(=O)Nc2cccc3c(Nc4ccc(C(F)(F)F)cc4F)ncnc23)c1F [Example-29, 6-Chloro-2-fluoro-N-(4-((2-fluoro-4-(trifluoromethyl)phenyl)amino)quinazolin-8-yl)-3-(pivalamidomethyl)benzamide] | 99% | 99.8% | < 50 nM
Cc1ccc(CNC(=O)C(C)(C)C)c(C)c1C(=O)Nc1cccc2c(NC(C)(C)C)ncnc12 [Example-68, N-(4-(tert-Butylamino)quinazolin-8-yl)-2,6-dimethyl-3-(pivalamidomethyl)benzamide] | 99.8% | 100% | < 50 nM
CC(C)(C)C(=O)NCc1ccc(Cl)c(C(=O)Nc2cccc3c(Oc4cccc(C(F)(F)F)c4)ccnc23)n1 [Example-17, 3-Chloro-6-(pivalamidomethyl)-N-(4-(3-(trifluoromethyl)phenoxy)quinolin-8-yl)picolinamide] | 94.3% | 93.9% | < 50 nM
CC1(C)CCC(Nc2nc(C(F)(F)F)nc3c(NC(=O)c4c(Cl)ccc(CNC(=O)C(C)(C)C)c4F)cccc23)CC1 [Example-32, 6-Chloro-N-(4-((4,4-dimethylcyclohexyl)amino)-2-(trifluoromethyl)quinazolin-8-yl)-2-fluoro-3-(pivalamidomethyl)benzamide] | 94.5% | 95.9% | < 50 nM
O=C(Nc1cccc2c(Nc3cc(C(F)(F)F)ccc3F)ncnc12)c1c(F)cccc1Cl [Example-34, 2-Chloro-6-fluoro-N-(4-((2-fluoro-5-(trifluoromethyl)phenyl)amino)quinazolin-8-yl)benzamide] | 75.4% | 84% | > 100 nM
CC(C)(C)Nc1ncnc2c(NC(=O)c3c(Cl)ccc(CNC(=O)C(C)(C)CO)c3F)cccc12 [Example-69, N-(4-(tert-Butylamino)quinazolin-8-yl)-6-chloro-2-fluoro-3-((3-hydroxy-2,2-dimethylpropanamido)methyl)benzamide] | 84.9% | 98.2% | < 50 nM
CC(C)(C)C(=O)NCc1ccc(Cl)c(C(=O)Nc2cccc3c(Oc4cccc(C(F)(F)F)c4)ccnc23)c1 [Example-16, 2-Chloro-5-(pivalamidomethyl)-N-(4-(3-(trifluoromethyl)phenoxy)quinolin-8-yl)benzamide] | 99% | 99.6% | < 50 nM
CC(C)(C)C(=O)NCc1ccc(Cl)c(C(=O)Nc2cccc3c(Oc4cccc(C(F)(F)F)c4)nccc23)n1 [Example-6, 3-Chloro-6-(pivalamidomethyl)-N-(1-(3-(trifluoromethyl)phenoxy)isoquinolin-5-yl)picolinamide] | 93% | 95.9% | 50 to 100 nM
CC(C)Nc1ncnc2c(NC(=O)c3c(Cl)ccc(CNC(=O)C(C)C)c3F)cccc12 [Example-77, 6-Chloro-2-fluoro-3-(isobutyramidomethyl)-N-(4-(isopropylamino)quinazolin-8-yl)benzamide] | 78.4% | 99.9% | < 50 nM
CC(C)(C)Nc1ncnc2c(NC(=O)c3cc(CNC(=O)C(C)(C)C)ccc3Cl)cccc12 [Example-67, N-(4-(tert-Butylamino)quinazolin-8-yl)-2-chloro-5-(pivalamidomethyl)benzamide] | 96.5% | 100% | < 50 nM
CC(C)(C)C(=O)NCc1ccc(Cl)c(C(=O)Nc2cccc3c(Oc4cccc(C(F)(F)F)c4)ncnc23)n1 [Example-9, 3-Chloro-6-(pivalamidomethyl)-N-(4-(3-(trifluoromethyl)phenoxy)quinazolin-8-yl)picolinamide] | 99.1% | 100% | < 50 nM
CC(C)Nc1ncnc2c(NC(=O)c3c(Cl)ccc(CNC(=O)C(C)(C)C)c3F)cccc12 [Example-64, 6-Chloro-2-fluoro-N-(4-(isopropylamino)quinazolin-8-yl)-3-(pivalamidomethyl)benzamide] | 90.6% | 94.5% | < 50 nM
CC(C)(C)C(=O)NCc1ccc(Cl)c(C(=O)Nc2cccc3c(Nc4cc(C(F)(F)F)ccc4F)ncnc23)c1F [Example-21, 6-Chloro-2-fluoro-N-(4-((2-fluoro-5-(trifluoromethyl)phenyl)amino)quinazolin-8-yl)-3-(pivalamidomethyl)benzamide] | 97.3% | 97.2% | < 50 nM
CC(C)(C)C(=O)NCc1ccc(Cl)c(C(=O)Nc2cccc3c(Nc4cccc(C(F)(F)F)c4)ncnc23)n1 [Example-8, 3-Chloro-6-(pivalamidomethyl)-N-(4-((3-(trifluoromethyl)phenyl)amino)quinazolin-8-yl)picolinamide] | 99% | 98% | < 50 nM
